Laboratory results published in patent US9487501B2, “Pyrazole carboxamide compounds and uses thereof” (Hoffmann-La Roche Inc., priority 2012, dated 2016).
Counter-ions that a name gives are not always drawn. Like-named read-outs stand apart in the source and are kept apart here.

Experiments:
rat TAAR1 = rat TAAR1 (Rattus norvegicus (Rat), UniProt Q923Y9); test: Radioligand binding assay on rat TAAR1;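 note: stably transfected HEK293 cell membranes with a tritiated radioligand, 1 h incubation at 4 °C, nonspecific binding taken as binding with 10 µM unlabeled ligand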
Sequence of rat TAAR1 (Q923Y9 whole entry): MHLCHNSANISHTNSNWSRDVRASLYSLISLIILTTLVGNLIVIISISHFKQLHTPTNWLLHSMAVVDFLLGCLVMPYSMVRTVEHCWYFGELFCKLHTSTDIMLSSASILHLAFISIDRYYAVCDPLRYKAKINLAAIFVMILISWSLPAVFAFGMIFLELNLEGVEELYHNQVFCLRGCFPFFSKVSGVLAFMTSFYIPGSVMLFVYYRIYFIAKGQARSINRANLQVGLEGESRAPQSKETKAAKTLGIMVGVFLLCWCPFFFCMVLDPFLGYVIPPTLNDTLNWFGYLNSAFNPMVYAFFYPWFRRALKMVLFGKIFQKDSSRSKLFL

mouse TAAR1 = mouse TAAR1 (Mus musculus (Mouse), UniProt Q923Y8); test: Radioligand binding assay on mouse TAAR1
Sequence of mouse TAAR1 (Q923Y8 whole entry): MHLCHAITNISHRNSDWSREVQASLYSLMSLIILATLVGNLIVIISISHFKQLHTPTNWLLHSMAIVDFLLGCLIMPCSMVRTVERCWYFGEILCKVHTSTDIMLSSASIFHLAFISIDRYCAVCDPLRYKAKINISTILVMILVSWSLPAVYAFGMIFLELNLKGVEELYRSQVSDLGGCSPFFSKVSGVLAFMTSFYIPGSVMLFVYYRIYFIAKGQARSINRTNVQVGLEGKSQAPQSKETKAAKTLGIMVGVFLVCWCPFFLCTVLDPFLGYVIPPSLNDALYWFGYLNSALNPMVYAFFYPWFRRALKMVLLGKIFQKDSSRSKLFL

[1] = read-out: Ki (μM) rat, rat TAAR1, membranes of HEK-293 cells, radioligand displacement
[2] = read-out: Ki (μM) mouse, mouse TAAR1, membranes of HEK-293 cells, radioligand displacement

| SMILES | Ki (rat TAAR1; [1]) [µM] | Ki (mouse TAAR1; [2]) [µM] | further results |
| --- | --- | --- | --- |
| Cc1ccnc(-n2cc(C(=O)Nc3ccc([C@H]4CNCCO4)cc3)cn2)n1 [Example 43, (S)-1-(4-methylpyrimidin-2-yl)-N-(4-(morpholin-2-yl)phenyl)-1H-pyrazole-4-carboxamide hydrochloride] | 0.315 | 0.0554 |  |
| Cc1nn(-c2ccc(OC(F)F)cc2)cc1C(=O)Nc1ccc([C@H]2CNCCO2)cc1 [Example 32, (S)-1-(4-(difluoromethoxy)phenyl)-3-methyl-N-(4-(morpholin-2-yl)phenyl)-1H-pyrazole-4-carboxamide hydrochloride] | 0.0002 | 0.0008 |  |
| O=C(Nc1ccc([C@H]2CNCCO2)cc1)c1cnn(-c2ccnc(Cl)n2)c1 [Example 36, (S)-1-(2-chloropyrimidin-4-yl)-N-(4-(morpholin-2-yl)phenyl)-1H-pyrazole-4-carboxamide hydrochloride] | 0.0054 | 0.0086 |  |
| O=C(Nc1ccc([C@H]2CNCCO2)cc1)c1cnn(-c2ccnc(Cl)c2)c1 [Example 20, (S)-1-(2-chloropyridin-4-yl)-N-(4-(morpholin-2-yl)phenyl)-1H-pyrazole-4-carboxamide hydrochloride] | 0.0059 | 0.0041 |  |
| CCOc1cccc(-n2cc(C(=O)Nc3ccc([C@H]4CNCCO4)cc3)cn2)n1 [Example 28, (S)-1-(6-ethoxypyridin-2-yl)-N-(4-(morpholin-2-yl)phenyl)-1H-pyrazole-4-carboxamide hydrochloride] | 0.0022 | 0.0008 |  |
| N#Cc1cccc(-n2cc(C(=O)Nc3ccc([C@H]4CNCCO4)cc3)cn2)c1 [Example 13, (S)-1-(3-cyanophenyl)-N-(4-(morpholin-2-yl)phenyl)-1H-pyrazole-4-carboxamide hydrochloride] | 0.0072 | 0.0023 |  |
| CCN(C[C@H]1COC(N)=N1)c1ccccc1 [reference compound] |  |  | Kd (rat TAAR1; read-out: dissociation constant (Kd) of the radioligand, rat TAAR1 membranes, saturation curve): ~2.3 nM; Kd (mouse TAAR1; read-out: dissociation constant (Kd) of the radioligand, mouse TAAR1 membranes, saturation curve): ~0.7 nM |
| O=C(Nc1ccc(C2CCNC2)cc1)c1cnn(-c2ccc(OC(F)F)cc2)c1 (racemic) [Example 54, (RS)-1-(4-difluoromethoxy-phenyl)-1H-pyrazole-4-carboxylic acid (4-pyrrolidin-3-yl-phenyl)-amide] |  |  | Ki (rat TAAR1): 0.0011 µM; Ki (mouse TAAR1): 0.0016 µM |
| N#Cc1cnc(-n2cc(C(=O)Nc3ccc([C@H]4CNCCO4)cc3)cn2)cn1 [Example 42, (S)-1-(5-cyanopyrazin-2-yl)-N-(4-(morpholin-2-yl)phenyl)-1H-pyrazole-4-carboxamide hydrochloride] | 0.0326 | 0.0199 |  |
| O=C(Nc1ccc([C@H]2CNCCO2)cc1)c1cnn(-c2nccnc2Cl)c1 [Example 41, (S)-1-(3-chloropyrazin-2-yl)-N-(4-(morpholin-2-yl)phenyl)-1H-pyrazole-4-carboxamide hydrochloride] | 0.0814 | 0.0275 |  |

Continued, in another order:

| Ki (rat TAAR1; [1]) [µM] | Ki (mouse TAAR1; [2]) [µM] | SMILES | further results |
| --- | --- | --- | --- |
| 0.0345 | 0.0195 | N#Cc1cncc(-n2cc(C(=O)Nc3ccc([C@H]4CNCCO4)cc3)cn2)n1 [Example 47, (S)-1-(6-cyanopyrazin-2-yl)-N-(4-(morpholin-2-yl)phenyl)-1H-pyrazole-4-carboxamide hydrochloride] |  |
| 0.0059 | 0.0214 | O=C(Nc1ccc([C@H]2CNCCO2)cc1)c1cnn(-c2cnc(C(F)(F)F)nc2)c1 [Example 45, (S)—N-(4-(morpholin-2-yl)phenyl)-1-(2-(trifluoromethyl)pyrimidin-5-yl)-1H-pyrazole-4-carboxamide hydrochloride] |  |
| 0.0036 | 0.0016 | O=C(Nc1ccc([C@H]2CNCCO2)cc1)c1cnn(-c2cc(Cl)ccn2)c1 [Example 15, (S)-1-(4-chloropyridin-2-yl)-N-(4-(morpholin-2-yl)phenyl)-1H-pyrazole-4-carboxamide hydrochloride] |  |
| 0.229 | 0.0086 | Cc1c(C(=O)Nc2ccc([C@H]3CNCCO3)cc2)cnn1-c1ccccc1 [Example 1, (S)-5-methyl-N-(4-(morpholin-2-yl)phenyl)-1-phenyl-1H-pyrazole-4-carboxamide hydrochloride] |  |
